Columns and labels:
[1] = test system: A2780 ovarian cells; test: A2780 ovarian cell proliferation assay in lipid reduced medium, with palmitate (MTT); type: cell-based; conditions: Homo sapiens, A2780, 96 h; read-out: pIC50 A2780 Ovarian Cell, With Palmitate (converted)
Outline: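 Seeded cells were switched next day to lipid-reduced serum, exposed to compound and 25 μM palmitate complexed with fatty-acid-free BSA, and incubated 96 h. Proliferation was then determined by MTT absorbance at 544 nm, with a best-fit curve of signal against concentration.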

[2] = test system: A2780 ovarian cells; test: A2780 ovarian cell proliferation assay in lipid reduced medium, without palmitate (MTT); type: cell-based; conditions: Homo sapiens, A2780, 96 h; read-out: pIC50 A2780 Ovarian Cell, Without Palmitate (converted)
[3] = test system: LNCaP-Vancouver prostate cells; test: In vitro LNCaP Vancouver prostate cell proliferation assay in lipid reduced medium; type: cell-based; conditions: read-out: pIC50 LNCaP_Vancouver prostate cell (converted)
Description: LNCaP-Vancouver prostate cells were obtained from the Vancouver Prostate Cancer Centre. Cells were maintained in RPMI-1640, 10% Fetal Calf Serum (FCS, Hyclone), 2 mM glutamine and 50 μg/ml Gentamicin.
For the proliferation experiment 1500 LNCaP-Vancouver cells per well were seeded in a 384-well black with clear bottom plate (costar 3712BC) in 40 μl RPMI-1640, 10% Lipid reduced serum (LRS, Hyclone), 50 μg/ml Gentamicin and 2 mM Glutamine and incubated at 37° C., 5% CO2. The next day 10 μl of test compound/DMSO diluted in medium was added (3E-5M, 1E-5M, 3E-6M, 1E-6M, 3E-7M, 1E-7M, 3E-8M, 1E-8M final concentration). Compounds were tested in duplicate. After 96 h incubation at 37° C., 5% CO2 25 μl ATP-glow mix was added. The plate was incubated for 30 min at 37° C. and luminescence was measured with the Envision.
Analysis: Determination of pIC50 Values
pIC50 values were calculated as follows.
where mLC and mHC are the means of the low control wells and high control wells on the plate, after manual exclusion of outliers. The relation between the % Controlmin values and concentration was fitted to a 4-parameter logistic curve using a non-linear least squares regression method to determine the pIC50 value. Outlying data points were excluded manually to get a correct fit. The pIC50 corresponds to −log 10(IC50), if the IC50 is expressed in molar units (http://www.ncbi.nlm.nih.gov/books/NBK91994). The IC50 parameter was always determined by non-linear regression, but one or more of the other parameters may have been held fixed on a relevant input value, such as 0 for the bottom values.
For dose response curves with FASN inhibitors in LNCaP-Vancouver or PC-3M-Luc-C6 cells the curves bottom out around 30 to 40% of the control value. A standard fit PL2, forcing the lower bound to this level was used.
Representative compounds of the present invention were tested according to the procedure as described in Biological Example 4a and 4b above, with results as listed in Table 9, below.

[4] = target: T1, hFASN enzyme (full length) (Homo sapiens, UniProt P49327); test: Fatty Acid Synthase (FASN) inhibition scintillation proximity assay; type: biochemical; conditions: for inhibition at 10 µM: read-out: Human FASN % inhibition @ 10 μM, 10 μM test compound; for IC50: read-out: Human FASN pIC50 (converted)
T1 construct: 10 μL hFASN enzyme (full length, 300 ng, purified in house); made in house
Outline: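 Purified full-length hFASN (300 ng) converts ^3H-acetyl-CoA plus malonyl-CoA to ^3H-palmitate in 100 mM KH2PO4 pH 7.5, 1 mM DTT; compounds tested at 0.01–30 μM. Product captured on streptavidin imaging beads and read by LEADseeker at 610 nm after ≥24 h; 4-parameter logistic fit versus controls.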

[5] = target: Fatty Acid Synthase Keto-reductase Domain (FASN KR) (Homo sapiens, UniProt P49327); test: Fatty Acid Synthase keto-reductase domain (FASN KR) inhibition, NADPH oxidation at 340 nm
Chain of Fatty Acid Synthase Keto-reductase Domain (FASN KR) (P49327 whole entry, the tested form may be a part): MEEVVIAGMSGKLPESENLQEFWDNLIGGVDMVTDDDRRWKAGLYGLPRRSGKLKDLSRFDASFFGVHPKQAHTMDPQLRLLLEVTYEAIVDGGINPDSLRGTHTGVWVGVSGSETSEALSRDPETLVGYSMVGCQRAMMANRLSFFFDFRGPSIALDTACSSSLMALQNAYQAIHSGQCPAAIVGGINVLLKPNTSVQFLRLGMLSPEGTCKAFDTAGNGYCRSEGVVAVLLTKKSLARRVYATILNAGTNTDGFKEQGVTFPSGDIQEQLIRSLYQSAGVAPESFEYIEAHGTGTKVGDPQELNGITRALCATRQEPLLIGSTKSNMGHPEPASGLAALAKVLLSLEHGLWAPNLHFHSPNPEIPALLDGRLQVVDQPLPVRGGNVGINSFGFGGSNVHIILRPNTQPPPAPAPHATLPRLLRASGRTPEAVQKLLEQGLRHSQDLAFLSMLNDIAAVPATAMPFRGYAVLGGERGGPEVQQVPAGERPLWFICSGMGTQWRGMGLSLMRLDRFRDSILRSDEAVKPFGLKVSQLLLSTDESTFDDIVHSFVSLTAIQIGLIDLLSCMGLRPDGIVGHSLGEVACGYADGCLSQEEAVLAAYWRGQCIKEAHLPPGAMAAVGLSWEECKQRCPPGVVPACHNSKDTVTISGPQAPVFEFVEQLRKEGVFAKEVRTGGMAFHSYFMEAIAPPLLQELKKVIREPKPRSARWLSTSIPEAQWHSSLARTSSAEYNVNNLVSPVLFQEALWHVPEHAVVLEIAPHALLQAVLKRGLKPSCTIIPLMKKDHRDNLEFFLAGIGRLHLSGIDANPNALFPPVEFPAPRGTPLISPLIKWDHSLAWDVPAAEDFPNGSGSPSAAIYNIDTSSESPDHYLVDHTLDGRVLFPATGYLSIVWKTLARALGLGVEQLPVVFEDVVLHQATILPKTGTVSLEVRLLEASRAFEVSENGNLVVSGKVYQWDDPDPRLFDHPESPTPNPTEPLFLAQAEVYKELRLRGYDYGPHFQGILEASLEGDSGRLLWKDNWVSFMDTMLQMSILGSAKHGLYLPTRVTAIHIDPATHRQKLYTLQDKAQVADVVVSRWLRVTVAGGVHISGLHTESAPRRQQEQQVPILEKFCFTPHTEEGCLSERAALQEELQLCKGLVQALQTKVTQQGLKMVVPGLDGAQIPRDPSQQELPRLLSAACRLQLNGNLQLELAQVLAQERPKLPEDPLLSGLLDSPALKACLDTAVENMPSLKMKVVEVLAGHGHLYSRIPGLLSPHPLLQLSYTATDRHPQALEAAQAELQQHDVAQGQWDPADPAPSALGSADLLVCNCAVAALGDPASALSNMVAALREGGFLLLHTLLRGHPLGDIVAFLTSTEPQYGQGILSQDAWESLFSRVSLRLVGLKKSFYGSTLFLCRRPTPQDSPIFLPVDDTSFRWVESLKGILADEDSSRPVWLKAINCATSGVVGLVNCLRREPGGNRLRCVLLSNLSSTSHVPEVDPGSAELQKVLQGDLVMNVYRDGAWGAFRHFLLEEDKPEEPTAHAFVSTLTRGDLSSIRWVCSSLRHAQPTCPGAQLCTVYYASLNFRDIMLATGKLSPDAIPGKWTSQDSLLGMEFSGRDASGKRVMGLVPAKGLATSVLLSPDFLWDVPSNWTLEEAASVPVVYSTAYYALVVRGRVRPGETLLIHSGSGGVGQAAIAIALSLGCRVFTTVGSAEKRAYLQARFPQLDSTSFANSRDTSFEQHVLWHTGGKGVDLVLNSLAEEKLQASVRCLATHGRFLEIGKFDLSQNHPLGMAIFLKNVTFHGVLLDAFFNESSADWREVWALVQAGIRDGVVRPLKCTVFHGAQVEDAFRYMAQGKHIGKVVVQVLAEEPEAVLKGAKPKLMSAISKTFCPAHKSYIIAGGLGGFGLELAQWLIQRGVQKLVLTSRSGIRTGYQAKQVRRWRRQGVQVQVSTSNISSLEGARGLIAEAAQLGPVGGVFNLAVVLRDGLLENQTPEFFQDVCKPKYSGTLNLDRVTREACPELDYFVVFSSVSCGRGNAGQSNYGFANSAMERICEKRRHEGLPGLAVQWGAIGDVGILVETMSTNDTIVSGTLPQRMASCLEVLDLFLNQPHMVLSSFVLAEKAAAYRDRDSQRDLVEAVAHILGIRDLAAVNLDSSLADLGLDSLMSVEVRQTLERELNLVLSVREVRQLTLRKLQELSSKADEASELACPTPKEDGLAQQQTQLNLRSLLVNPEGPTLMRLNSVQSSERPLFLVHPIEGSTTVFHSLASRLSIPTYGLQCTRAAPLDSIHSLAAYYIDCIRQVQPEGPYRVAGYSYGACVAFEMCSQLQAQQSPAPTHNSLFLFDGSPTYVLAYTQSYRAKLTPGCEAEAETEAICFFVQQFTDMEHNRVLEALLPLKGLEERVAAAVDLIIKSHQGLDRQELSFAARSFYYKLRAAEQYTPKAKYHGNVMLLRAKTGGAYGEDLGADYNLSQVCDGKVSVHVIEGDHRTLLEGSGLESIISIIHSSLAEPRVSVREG
Description: After 20 minutes incubation at room temperature the plate was measured again (T2).
The decrease in absorbance was calculated as (Absorbance before incubation T1)−(Absorbance following incubation T2).
A plot of Controlmin versus test compound concentration was fitted to a 4-parameter logistic curve using a non-linear least squares regression method.

T1 sequence (P49327 whole entry): as the sequence (P49327 whole entry, the tested form may be a part) above

IC50 [1] [nM]	IC50 [2] [nM]	IC50 [3] [nM]	inhibition at 10 µM [4] [%]	IC50 [4] [nM]	IC50 [5] [nM]	Human FASN pIC50 ([4]; hFASN enzyme full length, scintillation proximity assay, "~" = standard error of pIC50 larger than 0.5)	Structure (SMILES)
> 10000	~229	302					O=C(C1CC1)N1CC[C@@H](CN2C(=O)C3(CC3)N=C2c2ccc(-c3ccc4cc(F)ccc4c3)cc2)C1 [compound 311, (R)-6-((1-(cyclopropanecarbonyl)pyrrolidin-3-yl)methyl)-5-(4-(6-fluoronaphthalen-2-yl)phenyl)-4,6-diazaspiro[2.4]hept-4-en-7-one]
5890	~174	1000	98	178	676		Cn1ccc(-c2ccc(-c3ccc(C4=NC5(CC5)C(=O)N4CC4CN(C(=O)C5CC5)C4)c(F)c3)cc2)n1 [compound 547, 6-{[1-(Cyclopropylcarbonyl)azetidin-3-yl]methyl}-5-[3-fluoro-4′-(1-methyl-1H-pyrazol-3-yl)biphenyl-4-yl]-4,6-diazaspiro[2.4]hept-4-en-7-one]
> 10000	~2090	3630	106	38.9	81.3		Cc1sc2ccc(-c3ccc(C4=NC5(CC5)C(=O)N4C[C@@H]4CCN(C(=O)C5CC5)C4)cc3)cc2c1C [compound 296, (R)-6-((1-(cyclopropanecarbonyl)pyrrolidin-3-yl)methyl)-5-(4-(2,3-dimethylbenzo[b]thiophen-5-yl)phenyl)-4,6-diazaspiro[2.4]hept-4-en-7-one]
4790	200	1380	97	372	427		COc1nn(C)c2ccc(-c3ccc(C4=NC5(CC5)C(=O)N4C[C@@H]4CCN(C(=O)C5CC5)C4)cc3)cc12 [compound 557, 6-{[(3R)-1-(Cyclopropylcarbonyl)pyrrolidin-3-yl]methyl}-5-[4-(3-methoxy-1-methyl-1H-indazol-5-yl)phenyl]-4,6-diazaspiro[2.4]hept-4-en-7-one]
> 10000	513	479	99	69.2	148		O=C(C1CC1)N1CC[C@@H](CN2C(=O)C3(CC3)N=C2c2ccc(-c3ccc4ncccc4c3)cc2F)C1 [compound 248, (R)-6-((1-(cyclopropanecarbonyl)pyrrolidin-3-yl)methyl)-5-(2-fluoro-4-(quinolin-6-yl)phenyl)-4,6-diazaspiro[2.4]hept-4-en-7-one]
> 10000	240	1320	101	107	316		O=C(C1CC1)N1CC[C@@H](CN2C(=O)C3(CCCC3)N=C2c2ccc(-c3cnc4[nH]ccc4c3)cc2F)C1 [compound 881, (R)-3-((1-(cyclopropanecarbonyl)pyrrolidin-3-yl)methyl)-2-(2-fluoro-4-(1H-pyrrolo[2,3-b]pyridin-5-yl)phenyl)-1,3-diazaspiro[4.4]non-1-en-4-one]
> 10000	1550	3020	90		~3890	6.1	Cn1ncc2cc(-c3ccc(C4=NC5(CC5)C(=O)N4C[C@@H]4CCN(C(=O)C5CC5)C4)nc3)ccc21 [compound 397, 6-{[(3R)-1-(Cyclopropylcarbonyl)pyrrolidin-3-yl]methyl}-5-[5-(1-methyl-1H-indazol-5-yl)pyridin-2-yl]-4,6-diazaspiro[2.4]hept-4-en-7-one]
> 10000	~407	2630					Cn1ncc2cc(-c3ccc(C4=NC5(CCOCC5)C(=O)N4C[C@@H]4CCN(C(=O)C5CC5)C4)cc3)ccc21 [compound 672, 3-{[(3R)-1-(Cyclopropylcarbonyl)pyrrolidin-3-yl]methyl}-2-[4-(1-methyl-1H-indazol-5-yl)phenyl]-8-oxa-1,3-diazaspiro[4.5]dec-1-en-4-one]
> 10000	339	1070	99	91.2	263		O=C(C1CC1)N1CC[C@@H](CN2C(=O)C3(CC3)N=C2c2ccc(-c3ccc4cnc(F)cc4c3)cc2)C1 [compound 220, (R)-6-((1-(cyclopropanecarbonyl)pyrrolidin-3-yl)methyl)-5-(4-(3-fluoroisoquinolin-6-yl)phenyl)-4,6-diazaspiro[2.4]hept-4-en-7-one]
> 10000	~1000	1780	97	155	339		O=C(C1CC1)N1CC[C@@H](CN2C(=O)C3(CCOCC3)N=C2c2ccc(-c3ccc4occc4c3)cc2)C1 [compound 667, 2-[4-(1-Benzofuran-5-yl)phenyl]-3-{[(3R)-1-(cyclopropylcarbonyl)pyrrolidin-3-yl]methyl}-8-oxa-1,3-diazaspiro[4.5]dec-1-en-4-one]
> 10000	708	2340					Cn1ncc2cc(-c3ccc(C4=NC5(CCOC5)C(=O)N4C[C@@H]4CCN(C(=O)C5CC5)C4)cc3)ccc21 (stereo partly drawn) [compound 690, 3-{[(3R)-1-(Cyclopropylcarbonyl)pyrrolidin-3-yl]methyl}-2-[4-(1-methyl-1H-indazol-5-yl)phenyl]-7-oxa-1,3-diazaspiro[4.4]non-1-en-4-one]
		339	98	79.4	224		O=C(C1CC1)N1CC[C@@H](CN2C(=O)C3(CCOC3)N=C2c2ccc(-c3ccc4cccnc4c3)cc2)C1 (stereo partly drawn) [compound 680, 3-{[(3R)-1-(Cyclopropylcarbonyl)pyrrolidin-3-yl]methyl}-2-(4-quinolin-7-ylphenyl)-7-oxa-1,3-diazaspiro[4.4]non-1-en-4-one]
		4790	80	955	5370		Cc1ccc2cc(-c3ccc(C4=NC5(CC5)C(=O)N4CC4CN(C(=O)C5CC5)C4)cc3)ccc2n1 [compound 510, 6-{[1-(Cyclopropylcarbonyl)azetidin-3-yl]methyl}-5-[4-(2-methylquinolin-6-yl)phenyl]-4,6-diazaspiro[2.4]hept-4-en-7-one]
		3800	98	182	676		O=C(C1CC1)N1CC[C@@H](CN2C(=O)C3(CCOC3)N=C2c2ccc(-c3ccc4occc4c3)cc2)C1 (stereo partly drawn) [compound 686, 2-[4-(1-Benzofuran-5-yl)phenyl]-3-{[(3R)-1-(cyclopropylcarbonyl)pyrrolidin-3-yl]methyl}-7-oxa-1,3-diazaspiro[4.4]non-1-en-4-one]
		1660	93	245	646		COC(=O)N1CC2(C1)N=C(c1ccc(-c3ccc(-c4cnn(C)c4)cc3)cc1)N(C[C@@H]1CCN(C(=O)C3CC3)C1)C2=O [compound 725, Methyl 7-{[(3R)-1-(cyclopropylcarbonyl)pyrrolidin-3-yl]methyl}-6-[4′-(1-methyl-1H-pyrazol-4-yl)biphenyl-4-yl]-8-oxo-2,5,7-triazaspiro[3.4]oct-5-ene-2-carboxylate]
		2820					O=C([C@H]1CCCO1)N1CC[C@@H](CN2C(=O)C3(CCOCC3)N=C2c2ccc(-c3ccc4occc4c3)cc2)C1 [compound 669, 2-[4-(1-Benzofuran-5-yl)phenyl]-3-({(3R)-1-[(2R)-tetrahydro-furan-2-ylcarbonyl]pyrrolidin-3-yl}methyl)-8-oxa-1,3-diazaspiro[4.5]dec-1-en-4-one]

— US10077261B2, “Imidazolin-5-one derivative useful as FASN inhibitors for the treatment of cancer” (Janssen Pharmaceutica NV, priority 2012, dated 2018)
